In patent US10800791B2, “Triazole ACC inhibitors and uses thereof” (Gilead Apollo, LLC, priority 2015, dated 2020):
Converted amounts (≈) assume the structure as drawn. Like-named read-outs stand apart in the source and are kept apart here.

Assays:
Rhizoctonia solani (Rs) = experiment: Growth inhibition assay of fungal pathogens, Rs; assay type: cell-based; settings: 48 h
Procedure: Compounds of the present invention were evaluated in a growth inhibition assay to determine the ability to control the growth of fungal pathogens, such as Botrtyis cinerea (Bc), Collectotrichum graminicola (Cg), Diplodia maydis (Dm), Fusarium moniliforme (Fm), Fusarium virguliforme (Fv), Phytophthora capsici (Pc), Rhizoctonia solani (Rs), and Septoria tritici (St).
Compounds to be tested were dissolved in DMSO at 2.5 mg/ml to produce compound stock solutions (“stocks”). Stocks were diluted with DMSO by a five-fold dilution in a 96-well stock plate, and two sets of final concentrations of 50, 10, and 2 ppm or 2, 0.4, and 0.08 ppm were obtained in vitro. A set of positive controls was also prepared, with various concentrations of Soraphen (2, 0.4, and 0.08 ppm), Metalaxyl (1.1, 0.22, and 0.04 ppm), and Metconazole (2, 0.4, and 0.08 ppm or 0.2, 0.04, and 0.008 ppm) after the five-fold dilutions. Negative controls on each plate included 2% DMSO, water, and a blank (media+2% DMSO).
Fungal spores were isolated from previously sub-cultured plates of Botrtyis cinerea (Bc), Collectotrichum graminicola (Cg), Diplodia maydis (Dm), Fusarium moniliforme (Fm), Fusarium virguliforme (Fv), Phytophthora capsici (Pc), and Septoria tritici (St). The isolated spores were diluted to individual concentrations with a 17% V8 liquid media. For Rhizoctonia solani (Rs) and Pythium irregulare, 1.5 mm mycelial plugs were used in place of spores and/4 Potato Dextrose Broth (PDB) was used for dilution. The spore concentrations and plug sizes were based on growth curves generated at 48 hours for each pathogen.
In a second 96-well plate, the spores or mycelial plugs, media, diluted compound solutions, and controls were combined. Once the compound was added, a true final concentration of compound in each well was measured by an OD600 reading, which adjusted for any compound precipitation that might have occurred in the well. Plate readings were repeated at both 24 and 48 hours. The blank negative control was used as a background subtraction. Additional visual ratings were performed at both 24 and 48 hours for checking on precipitation and confirming efficacy. Visual and OD600 ratings of the compounds at 48 hours were compared to the 2% DMSO negative control, and the percent of pathogen growth inhibition was determined based on those values.

human (hACC2) = human (hACC2) (Homo sapiens, UniProt O00763); experiment: In vitro ACC inhibition assay (ADP-Glo), hACC2; assay type: biochemical; settings: 5 nM ACC2, 20 μM ATP, 20 μM acetyl-CoA
human (hACC2), sequence (O00763 whole entry): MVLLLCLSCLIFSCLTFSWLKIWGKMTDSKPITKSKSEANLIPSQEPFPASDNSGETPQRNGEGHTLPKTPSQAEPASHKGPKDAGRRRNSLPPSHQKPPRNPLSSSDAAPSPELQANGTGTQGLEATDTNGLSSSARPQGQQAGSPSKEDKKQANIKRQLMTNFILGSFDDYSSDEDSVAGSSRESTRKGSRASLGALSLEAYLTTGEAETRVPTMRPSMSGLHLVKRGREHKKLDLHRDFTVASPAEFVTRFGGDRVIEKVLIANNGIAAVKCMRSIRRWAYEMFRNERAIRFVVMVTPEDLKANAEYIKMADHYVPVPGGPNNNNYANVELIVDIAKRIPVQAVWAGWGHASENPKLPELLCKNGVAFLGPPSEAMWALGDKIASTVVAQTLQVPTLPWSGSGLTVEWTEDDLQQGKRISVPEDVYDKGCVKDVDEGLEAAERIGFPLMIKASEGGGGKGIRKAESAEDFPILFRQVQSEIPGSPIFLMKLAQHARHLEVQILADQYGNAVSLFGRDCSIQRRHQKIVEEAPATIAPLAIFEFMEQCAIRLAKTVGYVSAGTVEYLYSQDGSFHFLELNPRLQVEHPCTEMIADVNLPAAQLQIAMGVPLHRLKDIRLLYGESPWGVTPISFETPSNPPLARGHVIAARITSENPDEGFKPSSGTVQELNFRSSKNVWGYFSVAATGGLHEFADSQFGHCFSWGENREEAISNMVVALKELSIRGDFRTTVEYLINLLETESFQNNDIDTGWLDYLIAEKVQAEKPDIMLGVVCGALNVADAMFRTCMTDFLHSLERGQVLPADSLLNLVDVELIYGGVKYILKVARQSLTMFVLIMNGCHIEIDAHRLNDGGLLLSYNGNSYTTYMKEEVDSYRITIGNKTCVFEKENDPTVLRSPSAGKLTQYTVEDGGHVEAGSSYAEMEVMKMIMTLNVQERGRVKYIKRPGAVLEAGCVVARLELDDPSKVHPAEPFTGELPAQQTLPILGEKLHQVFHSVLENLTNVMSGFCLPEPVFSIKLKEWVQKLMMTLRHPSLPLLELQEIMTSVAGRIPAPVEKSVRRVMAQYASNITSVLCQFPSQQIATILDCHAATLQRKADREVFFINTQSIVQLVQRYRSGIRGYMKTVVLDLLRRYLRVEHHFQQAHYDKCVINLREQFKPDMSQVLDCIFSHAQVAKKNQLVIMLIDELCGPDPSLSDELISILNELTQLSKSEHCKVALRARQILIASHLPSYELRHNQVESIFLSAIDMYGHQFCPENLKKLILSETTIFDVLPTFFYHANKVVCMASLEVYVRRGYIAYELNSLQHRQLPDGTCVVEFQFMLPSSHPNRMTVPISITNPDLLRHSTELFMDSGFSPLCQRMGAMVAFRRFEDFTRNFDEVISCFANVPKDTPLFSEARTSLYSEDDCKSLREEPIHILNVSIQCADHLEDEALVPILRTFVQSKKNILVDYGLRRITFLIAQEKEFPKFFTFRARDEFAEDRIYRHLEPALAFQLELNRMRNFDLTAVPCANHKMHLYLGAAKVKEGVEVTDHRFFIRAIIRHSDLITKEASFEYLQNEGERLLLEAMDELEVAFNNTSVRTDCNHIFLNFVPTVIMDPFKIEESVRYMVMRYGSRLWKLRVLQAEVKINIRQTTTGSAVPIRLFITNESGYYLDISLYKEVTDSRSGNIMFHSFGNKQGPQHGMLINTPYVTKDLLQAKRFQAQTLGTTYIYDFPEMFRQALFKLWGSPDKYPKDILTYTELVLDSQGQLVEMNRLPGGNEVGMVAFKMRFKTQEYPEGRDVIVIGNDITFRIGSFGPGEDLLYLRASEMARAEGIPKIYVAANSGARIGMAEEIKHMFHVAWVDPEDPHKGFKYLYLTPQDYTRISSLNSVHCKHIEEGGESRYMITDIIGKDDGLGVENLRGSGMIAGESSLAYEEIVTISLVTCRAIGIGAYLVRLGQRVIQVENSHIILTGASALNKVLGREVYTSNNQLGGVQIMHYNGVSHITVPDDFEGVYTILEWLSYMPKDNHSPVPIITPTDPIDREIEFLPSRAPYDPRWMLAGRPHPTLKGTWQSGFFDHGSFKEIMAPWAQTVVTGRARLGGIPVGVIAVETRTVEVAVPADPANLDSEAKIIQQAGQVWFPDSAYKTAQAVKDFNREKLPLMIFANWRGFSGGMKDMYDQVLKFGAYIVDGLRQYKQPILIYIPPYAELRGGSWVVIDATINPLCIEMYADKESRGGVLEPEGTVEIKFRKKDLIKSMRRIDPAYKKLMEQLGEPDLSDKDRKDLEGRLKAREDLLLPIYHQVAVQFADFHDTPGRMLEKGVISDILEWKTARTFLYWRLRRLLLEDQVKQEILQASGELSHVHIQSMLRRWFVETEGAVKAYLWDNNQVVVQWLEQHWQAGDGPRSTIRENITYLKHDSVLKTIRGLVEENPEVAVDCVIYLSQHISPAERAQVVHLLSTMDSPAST
Procedure: The detailed procedure is as follows. […] 10 μL ADP glo reagent was added. […] 20 μL kinase detection reagent was added.

C. albicans = experiment: Antifungal Activity Assay (broth microtiter MIC), C. albicans; assay type: cell-based, Candida albicans; settings: Candida albicans, ATCC90028, 48 h
Procedure, shortened: (§1)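 MICs were scored by eye at 48 h relative to the growth control. Plates followed CLSI M27-A3, with Candida suspensions in RPMI 1640+MOPS giving a final 2.5×10^3 CFU/mL; the colonies came from Sabouraud agar grown overnight at 35 °C.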

C. krusei = experiment: Antifungal Activity Assay (broth microtiter MIC), C. krusei; assay type: cell-based, Candida krusei; settings: Pichia kudriavzevii, ATCC6258, 48 h
Procedure, shortened: as §1

fungal (fACC2) = fungal (fACC2) (UniProt Q00955); settings: read-out: fACC2 (in vitro ACC2 Inhibition Assay, IC50); Table 2b, additional results; ADP-Glo, 5 nM ACC2, 20 μM ATP, 20 μM acetyl-CoA
fungal (fACC2), sequence (Q00955 whole entry): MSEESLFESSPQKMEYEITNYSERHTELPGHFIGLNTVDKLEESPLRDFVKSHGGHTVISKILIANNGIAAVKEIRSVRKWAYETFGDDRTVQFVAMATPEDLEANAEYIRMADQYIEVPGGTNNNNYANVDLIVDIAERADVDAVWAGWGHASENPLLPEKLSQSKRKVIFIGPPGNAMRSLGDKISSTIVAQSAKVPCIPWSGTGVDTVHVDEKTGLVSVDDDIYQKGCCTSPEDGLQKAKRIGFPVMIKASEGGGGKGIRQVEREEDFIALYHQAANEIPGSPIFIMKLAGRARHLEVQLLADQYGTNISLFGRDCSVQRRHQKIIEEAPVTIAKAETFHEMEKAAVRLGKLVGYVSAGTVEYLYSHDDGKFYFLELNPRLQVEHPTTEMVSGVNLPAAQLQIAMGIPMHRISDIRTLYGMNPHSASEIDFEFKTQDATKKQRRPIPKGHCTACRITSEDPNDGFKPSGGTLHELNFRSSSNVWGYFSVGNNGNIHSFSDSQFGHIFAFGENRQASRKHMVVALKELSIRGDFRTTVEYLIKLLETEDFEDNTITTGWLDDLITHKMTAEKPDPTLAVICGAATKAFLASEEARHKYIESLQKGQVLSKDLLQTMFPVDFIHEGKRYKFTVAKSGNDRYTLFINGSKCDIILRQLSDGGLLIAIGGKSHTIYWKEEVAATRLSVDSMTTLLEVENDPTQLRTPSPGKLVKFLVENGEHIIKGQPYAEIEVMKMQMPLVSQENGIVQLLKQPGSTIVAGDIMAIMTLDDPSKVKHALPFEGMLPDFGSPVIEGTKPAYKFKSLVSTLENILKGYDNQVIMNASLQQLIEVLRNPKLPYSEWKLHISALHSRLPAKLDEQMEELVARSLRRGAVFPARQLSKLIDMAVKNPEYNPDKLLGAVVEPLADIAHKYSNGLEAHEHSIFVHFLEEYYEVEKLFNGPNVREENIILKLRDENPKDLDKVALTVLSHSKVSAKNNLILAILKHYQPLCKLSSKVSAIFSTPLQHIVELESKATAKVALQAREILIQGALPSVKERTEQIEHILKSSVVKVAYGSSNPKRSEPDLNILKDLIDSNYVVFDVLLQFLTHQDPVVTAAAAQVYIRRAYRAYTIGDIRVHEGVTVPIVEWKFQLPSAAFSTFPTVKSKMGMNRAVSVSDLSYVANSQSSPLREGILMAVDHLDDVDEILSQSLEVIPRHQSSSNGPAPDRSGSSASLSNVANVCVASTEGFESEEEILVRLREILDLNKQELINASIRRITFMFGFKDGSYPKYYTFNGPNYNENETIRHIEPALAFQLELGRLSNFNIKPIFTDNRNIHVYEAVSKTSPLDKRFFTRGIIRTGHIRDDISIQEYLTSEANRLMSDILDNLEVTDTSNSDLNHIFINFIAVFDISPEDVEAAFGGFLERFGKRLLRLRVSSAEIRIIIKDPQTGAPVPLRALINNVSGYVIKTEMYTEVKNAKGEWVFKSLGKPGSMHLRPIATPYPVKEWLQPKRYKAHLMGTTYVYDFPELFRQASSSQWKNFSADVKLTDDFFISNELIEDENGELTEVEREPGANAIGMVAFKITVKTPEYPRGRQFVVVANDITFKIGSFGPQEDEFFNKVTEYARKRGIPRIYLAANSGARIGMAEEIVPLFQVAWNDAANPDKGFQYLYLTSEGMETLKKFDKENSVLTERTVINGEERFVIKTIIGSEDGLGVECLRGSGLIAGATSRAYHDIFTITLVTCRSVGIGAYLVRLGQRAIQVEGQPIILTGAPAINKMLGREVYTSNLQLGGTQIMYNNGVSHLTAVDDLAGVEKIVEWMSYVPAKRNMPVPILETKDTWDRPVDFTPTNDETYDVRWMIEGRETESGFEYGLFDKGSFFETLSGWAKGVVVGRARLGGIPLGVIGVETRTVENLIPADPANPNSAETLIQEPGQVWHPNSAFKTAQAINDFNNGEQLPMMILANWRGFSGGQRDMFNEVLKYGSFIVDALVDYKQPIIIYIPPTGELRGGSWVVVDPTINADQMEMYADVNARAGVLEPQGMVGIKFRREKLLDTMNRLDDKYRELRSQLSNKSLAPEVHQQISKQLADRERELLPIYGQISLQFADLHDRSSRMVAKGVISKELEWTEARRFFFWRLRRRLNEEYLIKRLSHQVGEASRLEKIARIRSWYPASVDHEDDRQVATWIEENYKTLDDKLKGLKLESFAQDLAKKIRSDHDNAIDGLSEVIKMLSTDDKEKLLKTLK

C. parapsilosis = experiment: Antifungal Activity Assay (broth microtiter MIC), C. parapsilosis; assay type: cell-based, Candida parapsilosis; settings: Lodderomyces parapsilosis, ATCC22019, 48 h
Procedure, shortened: as §1

[1] = read-out: Concentration at 90% Inhibition Rs, Rhizoctonia solani, mycelial plugs, growth inhibition at 48 hours vs 2% DMSO control
[2] = read-out: Concentration at 90% Inhibition Rs, Rhizoctonia solani, mycelial plugs, growth inhibition vs 2% DMSO control at 48 hours
[3] = Table 3b (additional results), ATCC 90028, 3 replicates, MIC recorded at 48 h, read-out: MIC, C. albicans ATCC 90028
[4] = Table 3b (additional results), ATCC 6258, 3 replicates, MIC recorded at 48 h, read-out: MIC, C. krusei ATCC 6258
[5] = Table 3b (additional results), ATCC 22019, 3 replicates, MIC recorded at 48 h, read-out: MIC, C. parapsilosis ATCC 22019

Structure (SMILES) | IC90 (Rhizoctonia solani (Rs); [1]) [mg/L] | IC90 (Rhizoctonia solani (Rs); [2]) [mg/L] | IC50 (human (hACC2); Table 2a) [nM] | IC50 (human (hACC2); Table 2b, additional results) [nM] | IC90 (Rhizoctonia solani (Rs); mycelial plugs, growth inhibition at 48 hours vs 2% DMSO control, read-out: Concentration at 90% Inhibition Rs) [mg/L] | IC90 (Rhizoctonia solani (Rs); mycelial plugs, growth inhibition vs 2% DMSO control at 48 hours, read-out: Concentration at 90% Inhibition Rs) [mg/L] | MIC (C. albicans; [3]) [mg/L] | MIC (C. krusei; [4]) [mg/L] | IC50 (fungal (fACC2)) [nM] | MIC (C. parapsilosis; [5]) [mg/L] | MIC (C. albicans; read-out: MIC, C. albicans ATCC 90028, Table 3b (additional results), 3 replicates, MIC recorded at 48 h) [mg/L] | MIC (C. krusei; read-out: MIC, C. krusei ATCC 6258, Table 3b (additional results), 3 replicates, MIC recorded at 48 h) [mg/L] | MIC (C. parapsilosis; read-out: MIC, C. parapsilosis ATCC 22019, Table 3b (additional results), 3 replicates, MIC recorded at 48 h) [mg/L]
COc1ccc(F)cc1[C@H](Cn1c(=O)n(C(C)(C)C(=O)NC(C)C)c(=O)c2c(C)c(-n3nccn3)sc21)OCC(C)C [Compound I-10, (R)-2-(1-(2-(5-fluoro-2-methoxyphenyl)-2-isobutoxyethyl)-5-methyl-2,4-dioxo-6-(2H-1,2,3-triazol-2-yl)-1,4-dihydrothieno[2,3-d]pyrimidin-3(2H)-yl)-N-isopropyl-2-methylpropanamide] | 0.4 (≈ 0.666 µM) | 0.4 (≈ 0.666 µM) | 10 to 40 | 10 to 40 |  |  |  |  |  |  |  |  | 
COc1ccccc1[C@H](Cn1c(=O)n(C(C)(C)C(=O)NCC(C)C)c(=O)c2c(C)c(-n3nccn3)sc21)OC1CCOCC1 [Compound I-13, (R)—N-isobutyl-2-(1-(2-(2-methoxyphenyl)-2-((tetrahydro-2H-pyran-4-yl)oxy)ethyl)-5-methyl-2,4-dioxo-6-(2H-1,2,3-triazol-2-yl)-1,4-dihydrothieno[2,3-d]pyrimidin-3(2H)-yl)-2-methylpropanamide] |  |  | 5 to 10 | 5 to 10 | 0.08 (≈ 0.128 µM) | 0.08 (≈ 0.128 µM) |  |  |  |  |  |  | 
COc1ccccc1[C@H](Cn1c(=O)n(C(C)(C)C(=O)NC(C)C)c(=O)c2c(C)c(-n3nccn3)sc21)OC1CCOCC1 [Compound I-16, (R)—N-isopropyl-2-(1-(2-(2-methoxyphenyl)-2-((tetrahydro-2H-pyran-4-yl)oxy)ethyl)-5-methyl-2,4-dioxo-6-(2H-1,2,3-triazol-2-yl)-1,4-dihydrothieno[2,3-d]pyrimidin-3(2H)-yl)-2-methylpropanamide] | 0.4 (≈ 0.655 µM) | 0.4 (≈ 0.655 µM) | 5 to 10 | 5 to 10 |  |  |  |  |  |  |  |  | 
COc1ccccc1[C@H](Cn1c(=O)n(C(C)(C)C(=O)N2CCCCC2)c(=O)c2c(C)c(-n3nccn3)sc21)OC1CCOCC1 [Compound I-17, (R)-1-(2-(2-methoxyphenyl)-2-((tetrahydro-2H-pyran-4-yl)oxy)ethyl)-5-methyl-3-(2-methyl-1-oxo-1-(piperidin-1-yl)propan-2-yl)-6-(2H-1,2,3-triazol-2-yl)thieno[2,3-d]pyrimidine-2,4(1H,3H)-dione] | 0.08 (≈ 0.126 µM) | 0.08 (≈ 0.126 µM) | 5 to 10 | 5 to 10 |  |  |  |  |  |  |  |  | 
CCc1ccc(F)cc1[C@H](Cn1c(=O)n(C(C)(C)C(=O)NC(C)C)c(=O)c2c(C)c(-n3nccn3)sc21)OC[C@@H](C)C#N [Compound I-244] |  |  |  | > 40 |  |  | 2.01 to 4 (≈ 3.3 to 6.56 µM) | > 4.01 | 1 to 5 | 2.01 to 4 (≈ 3.3 to 6.56 µM) |  |  | 
Cc1c(-n2nccn2)sc2c1c(=O)n(C(C)(C)C(=O)NC(C)C)c(=O)n2C[C@H](OCCC#N)c1cc(F)ccc1OCc1ccccc1 [Compound I-249] |  |  |  | 5 to 10 |  |  | 2.01 to 4 (≈ 2.98 to 5.94 µM) | 2.01 to 4 (≈ 2.98 to 5.94 µM) | 0.3 to 1 | 1.01 to 2 (≈ 1.5 to 2.97 µM) |  |  | 
COc1ccc(F)cc1[C@H](Cn1c(=O)n(C(C)(C)C(=O)NC(C)C)c(=O)c2c(C)c(-n3nccn3)sc21)OCCOC(=O)C(C)C [Compound I-250] |  |  |  | 5 to 10 |  |  | 1.01 to 2 (≈ 1.53 to 3.04 µM) | 0.25 to 1 (≈ 0.38 to 1.52 µM) | 1 to 5 | 0.25 to 1 (≈ 0.38 to 1.52 µM) |  |  | 
COc1ccc(F)cc1[C@@H](Cn1c(=O)n(C(C)(C)C(=O)NC(C)C)c(=O)c2c(C)c(-n3nccn3)sc21)OC(=O)CO [Compound I-261] |  |  |  | 5 to 10 |  |  | 0.25 to 1 (≈ 0.415 to 1.66 µM) | 0.06 to 0.249 (≈ 0.0996 to 0.413 µM) | 0.3 to 1 | 1.01 to 2 (≈ 1.68 to 3.32 µM) |  |  | 
COc1ccc(F)cc1[C@@H](Cn1c(=O)n(C(C)(C)C(=O)NC(C)C)c(=O)c2c(C)c(-n3nccn3)sc21)OC(=O)C(C)(C)O [Compound I-263] |  |  |  | 10 to 40 |  |  |  |  | 0.3 to 1 |  | 0.25 to 1 (≈ 0.396 to 1.59 µM) | 0.25 to 1 (≈ 0.396 to 1.59 µM) | 1.01 to 2 (≈ 1.6 to 3.17 µM)
CCOC(=O)[C@H]1CC[C@@H](O[C@@H](Cn2c(=O)n(C(C)(C)C(=O)NC(C)C)c(=O)c3c(C)c(-n4nccn4)sc32)c2cc(F)ccc2OC)CC1 [Compound I-264] |  |  |  | 10 to 40 |  |  | 0.25 to 1 (≈ 0.358 to 1.43 µM) | 0.06 to 0.249 (≈ 0.0859 to 0.356 µM) | 1 to 5 | 0.25 to 1 (≈ 0.358 to 1.43 µM) |  |  | 
COc1ccc(F)cc1[C@H](Cn1c(=O)n(C(C)(C)C(=O)NC(C)C)c(=O)c2c(C)c(-n3nccn3)sc21)O[C@H]1CC[C@@H](C(=O)O)CC1 [Compound I-265] |  |  |  | 10 to 40 |  |  | 0.25 to 1 (≈ 0.373 to 1.49 µM) | 0.06 to 0.249 (≈ 0.0895 to 0.371 µM) | 1 to 5 | 0.25 to 1 (≈ 0.373 to 1.49 µM) |  |  | 
CCOC(=O)[C@H]1CC[C@H](O[C@@H](Cn2c(=O)n(C(C)(C)C(=O)NC(C)C)c(=O)c3c(C)c(-n4nccn4)sc32)c2cc(F)ccc2OC)CC1 [Compound I-269] |  |  |  | > 40 |  |  | 0.25 to 1 (≈ 0.358 to 1.43 µM) | 0.06 to 0.249 (≈ 0.0859 to 0.356 µM) | 1 to 5 | 0.25 to 1 (≈ 0.358 to 1.43 µM) |  |  | 
COc1ccc(F)cc1[C@H](Cn1c(=O)n(C(C)(C)C(=O)NC(C)C)c(=O)c2c(C)c(-n3nccn3)sc21)O[C@H]1CC[C@H](C(=O)O)CC1 [Compound I-270] |  |  |  | 10 to 40 |  |  | 0.25 to 1 (≈ 0.373 to 1.49 µM) | 0.06 to 0.249 (≈ 0.0895 to 0.371 µM) | 0.3 to 1 | 0.25 to 1 (≈ 0.373 to 1.49 µM) |  |  | 
COc1ccc(F)cc1[C@H](Cn1c(=O)n(C(C)(C)C(=O)NC(C)C)c(=O)c2c(C)c(-n3nccn3)sc21)OC[C@H](C)C(=O)O [Compound I-273] |  |  |  | > 40 |  |  | 0.25 to 1 (≈ 0.396 to 1.59 µM) | 0.25 to 1 (≈ 0.396 to 1.59 µM) | 0.3 to 1 | 1.01 to 2 (≈ 1.6 to 3.17 µM) |  |  | 
COc1ccc(F)cc1[C@H](Cn1c(=O)n(C(C)(C)C(=O)NC(C)C)c(=O)c2c(C)c(-n3nccn3)sc21)OC[C@@H](C)C(=O)O [Compound I-274] |  |  |  | > 40 |  |  | 0.25 to 1 (≈ 0.396 to 1.59 µM) | 0.25 to 1 (≈ 0.396 to 1.59 µM) | 0.3 to 1 | 1.01 to 2 (≈ 1.6 to 3.17 µM) |  |  | 
